For 13 compounds, logP results are on record in the SangsterLogP compilation.

In the case of `COC(=O)c1cc2ccc([N+](=O)[O-])cc2s1`, the logP worked out at 3.06.
The same measure for `COc1ccc(OC)c2sc(C=O)cc12`: 2.75; for `COC(=O)c1cc2cc(Cl)ccc2s1`: 3.81; for `O=Cc1cc2cc(Cl)ccc2s1`: 2.94.
In turn, `CN(C)N=Cc1sc2ccc(Cl)cc2c1Br` registered a log partition coefficient (logP) of 4.54.
The same measure for `OCc1cc2ccccc2s1`: 2.08; for `CN(C)N=Cc1cc2cc(Cl)ccc2s1`: 4.18.
In turn, `COc1ccc(OC)c2sc(CO)cc12` registered a logP of 2.11.
Compound `OCc1cc2cc(Cl)ccc2s1` had a logP of 2.71.
The same measure for `COC(=O)c1sc2c(OC)ccc(OC)c2c1N`: 2.97.
For `OCc1sc2ccc(Cl)cc2c1Br`, the logP amounted to 3.6.
The same measure for `O=Cc1sc2ccc(Cl)cc2c1Br`: 3.89; for `COC(=O)c1cc2ccccc2s1`: 3.21.

As a reminder, the logP is the decadic logarithm of the partition coefficient of the neutral form, usually between octanol and water. A high value points to higher lipophilicity.
